{
  "source": "patent EP4667482A1",
  "about": "“SALT OF DIPEPTIDE COMPOUND, PREPARATION METHOD THEREFOR, AND USE THEREOF” (Zhejiang Huahai Pharmaceutical Co., Ltd., priority 2023, dated 2024)",
  "key": {"[1]": {"test": "Solid-state stability of Form III (mechanical milling; storage at 60 °C sealed)", "type": "physicochemical"}, "[2]": {"test": "Moisture adsorption / hygroscopicity (DVS)", "type": "physicochemical", "details": "for Hygroscopicity: result in words"}, "[3]": {"system": "Rats model of deep vein thrombosis", "test": "Rat model of deep vein thrombosis (thrombus weight)", "type": "in vivo, SD rats", "details": "5 mg/kg, oral gavage", "source_text": "Experimental animals: SD rats (body weight 220 to 250 g, sex: male)\nThe thrombus was removed and weighed."}, "[4]": {"test": "Stability at room temperature (10 days)", "type": "physicochemical"}},
  "note": "Where a name gives a salt, the structure may show the parent alone.",
  "data": [
    {"smiles": "CCCCCCOC(=O)NC(=N)c1ccc(CNC(=O)[C@@H]2CCCN2C(=O)[C@@H](CC(C)C)NCC(=O)OCC)cc1", "note": "[Form III]", "values": [
      {"measurement": "crystalline form after storage", "setting": "[1]; 60 °C/sealed condition for 7 days", "result": "converted to Form I"},
      {"measurement": "purity", "setting": "[1]; after storage at 60 °C/sealed condition for 7 days", "result": 89.35, "unit": "%"},
      {"measurement": "purity", "setting": "[1]; before storage at 60 °C/sealed condition", "result": 95.81, "unit": "%"},
      {"measurement": "crystalline form after mechanical milling", "setting": "[1]; mechanical milling for 2 minutes", "result": "converted to Form I"},
      {"measurement": "water absorption (DVS)", "setting": "[2]; 80% RH", "result": 28.8, "unit": "%"},
      {"measurement": "water absorption (DVS)", "setting": "[2]; 90% humidity", "result": 50.0, "unit": "%"}
    ]},
    {"smiles": "CCCCCCOC(=O)N=C(N)c1ccc(NCc2nc3cc(C(=O)N(CCC(=O)OCC)c4ccccn4)ccc3n2C)cc1", "note": "[Dabigatran etexilate, reference compound]", "values": [
      {"measurement": "Thrombosis inhibition rate (%)", "setting": "[3]", "result": 69.9, "unit": "%"},
      {"measurement": "Thrombus weight", "setting": "[3]", "result": "21.4 ± 8.2", "unit": "mg"}
    ]},
    {"smiles": "CCCCCCOC(=O)NC(=N)c1ccc(CNC(=O)[C@@H]2CCCN2C(=O)[C@@H](CC(C)C)NCC(=O)OCC)cc1", "note": "[Form A of the monohydrochloride]", "values": [
      {"measurement": "Stability at room temperature (10 days)", "setting": "[4]", "result": "White powder, crystalline form remains unchanged (10 days)"},
      {"measurement": "Moisture adsorption content (wt%)", "setting": "[2]", "result": 0.5, "unit": "wt%"},
      {"measurement": "Hygroscopicity", "setting": "[2]", "result": "Slightly hygroscopic"}
    ]},
    {"smiles": "CCCCCCOC(=O)NC(=N)c1ccc(CNC(=O)[C@@H]2CCCN2C(=O)[C@@H](CC(C)C)NCC(=O)OCC)cc1", "note": "[Form B of the monohydrochloride]", "values": [
      {"measurement": "Stability at room temperature (10 days)", "setting": "[4]", "result": "White powder, crystalline form remains unchanged (10 days)"},
      {"measurement": "Moisture adsorption content (wt%)", "setting": "[2]", "result": 3.0, "unit": "wt%"},
      {"measurement": "Hygroscopicity", "setting": "[2]", "result": "Hygroscopic"}
    ]}
  ]
}
